Laboratory results taken from ChEMBL document CHEMBL4304812, “Synthesis and Bioactivity of the Alanyl Phosphonamidate Stereoisomers Derived from a Butyrophilin Ligand” (ACS Med Chem Lett, 2019).

System: PBMC
Test: Activation of cell proliferation in human PBMC incubated for 72 hrs by Cell Quanti Blue reagent based assay
Assay type: functional

With C/C(=C\CCP(=O)(O)O)CO as the compound, how does the EC50 read?
The EC50 was 4000 nM.

Which EC50 does the source give for C/C(=C\COP(=O)(O)OP(=O)(O)O)CO here?
Its EC50 is 0.5 nM.

Which EC50 does the source give for C/C(=C\CCP(=O)(OCOC(=O)C(C)(C)C)Oc1ccccc1)CO (configuration not stated) here?
Its EC50 is 14 nM.

With CCOC(=O)[C@H](C)N[P@](=O)(CC/C=C(\C)CO)Oc1ccccc1 as the compound, how does the EC50 read?
Its EC50 is 0.43 nM.

With C/C(=C\CCP(=O)(OCOC(=O)C(C)(C)C)Oc1cccc2ccccc12)CO (configuration not stated) as the compound, how does the EC50 read?
The EC50 was 0.79 nM.

With CCOC(=O)[C@H](C)N[P@@](=O)(CC/C=C(\C)CO)Oc1ccccc1 as the compound, how does the EC50 read?
The EC50 was 0.28 nM.

Target: T1, Butyrophilin subfamily 3 member A1 (Homo sapiens, UniProt O00481)
Test: Activation of butyrophilin 3A1 in human K562 cells assessed as interferon-gamma production pretreated for 240 mins followed by HMBPP-treated Vgamma9Vdelta2 T cells addition and measured after 20 hrs by ELISA
Assay type: cell-based

T1 sequence (O00481 whole entry): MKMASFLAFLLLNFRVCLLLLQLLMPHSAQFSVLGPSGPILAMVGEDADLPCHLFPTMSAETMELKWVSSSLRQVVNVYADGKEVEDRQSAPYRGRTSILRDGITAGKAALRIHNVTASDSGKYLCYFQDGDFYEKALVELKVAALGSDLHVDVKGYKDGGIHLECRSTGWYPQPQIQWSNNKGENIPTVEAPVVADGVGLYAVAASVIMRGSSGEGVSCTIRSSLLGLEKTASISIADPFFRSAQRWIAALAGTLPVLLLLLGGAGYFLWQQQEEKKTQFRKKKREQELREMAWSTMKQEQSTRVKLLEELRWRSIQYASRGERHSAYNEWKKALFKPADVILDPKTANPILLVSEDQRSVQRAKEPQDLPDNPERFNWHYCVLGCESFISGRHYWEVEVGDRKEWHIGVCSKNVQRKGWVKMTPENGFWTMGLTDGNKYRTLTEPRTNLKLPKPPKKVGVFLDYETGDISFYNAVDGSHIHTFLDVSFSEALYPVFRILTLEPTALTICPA

With C/C(=C\CCP(=O)(O)OP(=O)(O)O)CO as the compound, how does the EC50 read?
The EC50 was 280 nM.

For CCOC(=O)[C@@H](C)N[P@](=O)(CC/C=C(\C)CO)Oc1ccccc1, which EC50 is on record?
Its EC50 is 520 nM.

For CCOC(=O)[C@H](C)N[P@](=O)(CC/C=C(\C)CO)Oc1ccccc1, which EC50 is on record?
The EC50 was 43 nM.

For CCOC(=O)[C@H](C)N[P@@](=O)(CC/C=C(\C)CO)Oc1ccccc1, which EC50 is on record?
Its EC50 is 21 nM.

With CCOC(=O)[C@@H](C)N[P@@](=O)(CC/C=C(\C)CO)Oc1ccccc1 as the compound, how does the EC50 read?
The EC50 was 430 nM.

With CCOC(=O)CNP(=O)(CC/C=C(\C)CO)Oc1ccccc1 (racemic) as the compound, how does the EC50 read?
The EC50 was 51 nM.

With O=P(O)(O)C(O)(Cn1ccnc1)P(=O)(O)O [ZOLEDRONIC ACID] as the compound, how does the EC50 read?
The EC50 was 23000 nM.

Target: T1, Butyrophilin subfamily 3 member A1
Test: Activation of butyrophilin 3A1 in human K562 cells assessed as interferon-gamma production pretreated for 60 mins followed by HMBPP-treated Vgamma9Vdelta2 T cells addition and measured after 20 hrs by ELISA
Assay type: cell-based

For C/C(=C\CCP(=O)(O)OP(=O)(O)O)CO, which EC50 is on record?
The EC50 was 1200 nM.

With CCOC(=O)[C@@H](C)N[P@](=O)(CC/C=C(\C)CO)Oc1ccccc1 as the compound, how does the EC50 read?
Its EC50 is 2000 nM.

For CCOC(=O)[C@H](C)N[P@](=O)(CC/C=C(\C)CO)Oc1ccccc1, which EC50 is on record?
Its EC50 is 160 nM.

For CCOC(=O)[C@H](C)N[P@@](=O)(CC/C=C(\C)CO)Oc1ccccc1, which EC50 is on record?
The EC50 was 79 nM.

Which EC50 does the source give for CCOC(=O)[C@@H](C)N[P@@](=O)(CC/C=C(\C)CO)Oc1ccccc1 here?
Its EC50 is 1500 nM.

With CCOC(=O)CNP(=O)(CC/C=C(\C)CO)Oc1ccccc1 (racemic) as the compound, how does the EC50 read?
The EC50 was 230 nM.

Which EC50 does the source give for O=P(O)(O)C(O)(Cn1ccnc1)P(=O)(O)O [ZOLEDRONIC ACID] here?
The EC50 was 79000 nM.

System: not listed separately
Test: Stability in 50% human plasma at 100 uM measured for 24 hrs by LCMS analysis
Assay type: ADME, cell-free

For C/C(=C\CCP(=O)(OCOC(=O)C(C)(C)C)OCOC(=O)C(C)(C)C)CO, which Stability is on record?
The Stability was “Stable”.

Which Stability does the source give for CCOC(=O)[C@@H](C)N[P@](=O)(CC/C=C(\C)CO)Oc1ccccc1 here?
The Stability was “Stable”.

Which Stability does the source give for CCOC(=O)[C@H](C)N[P@](=O)(CC/C=C(\C)CO)Oc1ccccc1 here?
The Stability was “Stable”.

With CCOC(=O)[C@H](C)N[P@@](=O)(CC/C=C(\C)CO)Oc1ccccc1 as the compound, how does the Stability read?
Its Stability is “Stable”.

With CCOC(=O)[C@@H](C)N[P@@](=O)(CC/C=C(\C)CO)Oc1ccccc1 as the compound, how does the Stability read?
The Stability was “Stable”.

Target: T1, Butyrophilin subfamily 3 member A1
Test: Activation of butyrophilin 3A1 in human K562 cells assessed as interferon-gamma production pretreated for 15 mins followed by HMBPP-treated Vgamma9Vdelta2 T cells addition and measured after 20 hrs by ELISA
Assay type: cell-based

With C/C(=C\CCP(=O)(O)OP(=O)(O)O)CO as the compound, how does the EC50 read?
Its EC50 is 7600 nM.

For CCOC(=O)[C@@H](C)N[P@](=O)(CC/C=C(\C)CO)Oc1ccccc1, which EC50 is on record?
The EC50 was 6000 nM.

With CCOC(=O)[C@H](C)N[P@](=O)(CC/C=C(\C)CO)Oc1ccccc1 as the compound, how does the EC50 read?
Its EC50 is 460 nM.

With CCOC(=O)[C@H](C)N[P@@](=O)(CC/C=C(\C)CO)Oc1ccccc1 as the compound, how does the EC50 read?
Its EC50 is 200 nM.

With CCOC(=O)[C@@H](C)N[P@@](=O)(CC/C=C(\C)CO)Oc1ccccc1 as the compound, how does the EC50 read?
Its EC50 is 4600 nM.

With CCOC(=O)CNP(=O)(CC/C=C(\C)CO)Oc1ccccc1 (racemic) as the compound, how does the EC50 read?
The EC50 was 1500 nM.

Which EC50 does the source give for O=P(O)(O)C(O)(Cn1ccnc1)P(=O)(O)O [ZOLEDRONIC ACID] here?
Its EC50 is greater than 100000 nM.
